This note sets out measurements from ChEMBL document CHEMBL5120753, “Isolation and biological activity of azocine and azocane alkaloids” (Bioorg Med Chem, 2022).

Each structure is given as a SMILES string. Values after ≈ are worked out from the molar mass of the structure shown.

One data set relates to NIH3T3. In words: Cytotoxicity against mouse NIH3T3 cells assessed as cell growth inhibition incubated for 48 hrs by alamar blue dye-based fluorometric analysis. The format is functional. To be noted: NIH3T3, 48 h. (In general: Alamar Blue is a resazurin reagent that responds to reducing activity.)
In data set [1] the test system is Plasmodium falciparum. As to the kind of experiment: Antimalarial activity against Plasmodium falciparum K1 infected in human RBC assessed as parasite growth inhibition measured after 48 hrs by optical microscopy. It counts as functional, organism-based. To be noted: K1, Erythrocyte.
Data set [2] concerns Mycobacterium tuberculosis. In words: Antimycobacterial activity against Mycobacterium tuberculosis H37Rv assessed as inhibition of bacterial growth. It counts as functional.
Data set [3] is described as follows: Inhibition of urease (unknown origin). The arrangement: species or system Homo sapiens.
Data set [4] has as its target Prostaglandin G/H synthase 1 (Homo sapiens) (UniProt P23219). As to the kind of experiment: Inhibition of COX-1 (unknown origin) using arachidonic acid as substrate at 100 uM preincubated for 5 mins followed by substrate addition measured after 15 mins by absorbance based analysis relative to control. Conditions: time 20.0 min.
The target in data set [5] is Polyunsaturated fatty acid 5-lipoxygenase (Homo sapiens) (UniProt P09917). In words: Inhibition of 5-LOX (unknown origin) using arachidonic acid as substrate at 100 uM preincubated for 5 mins followed by substrate addition measured after 15 mins by absorbance based analysis relative to control. Conditions: time 20.0 min.
Data set [6] concerns the target Xanthine dehydrogenase/oxidase (Homo sapiens, UniProt P47989). As to the kind of experiment: Inhibition of xanthine oxidase (unknown origin).
Data set [7] addresses Prostaglandin G/H synthase 2 (Homo sapiens) (UniProt P35354). In words: Inhibition of COX-2 (unknown origin) using arachidonic acid as substrate at 100 uM preincubated for 5 mins followed by substrate addition measured after 15 mins by absorbance based analysis relative to control. Conditions: time 20.0 min.
Data set [8] is described as follows: Antioxidant activity assessed as DPPH radical scavenging activity. It counts as functional.
Data set [9] can be described thus: Cytotoxicity against multidrug resistant human VJ300 cells expressing P-gp assessed as cell growth inhibition measured after 72 hrs by MTT assay. It counts as functional, cell-based. Conditions: VJ-300, 72 h. In general terms: Tetrazolium assays rely on reduction of a dye to a coloured formazan, in cell work by metabolically active cells.
For the next data set, the system named is B16. In words: Cytotoxicity against mouse B16 cells assessed as cell growth inhibition measured after 72 hrs by MTT assay. It counts as functional, cell-based. Conditions: B16, 72 h.
Another data set concerns N2a. As to the kind of experiment: Neuroprotective activity against paraquat induced mouse Neuro2a cells assessed as reduction in cell viability at 1 uM pretreated for 1 hr followed by paraquat addition measured after 24 hrs by MTT method relative to control. It counts as functional. Conditions: time 25 hrs.
The subject of data set [10] is Mycobacterium tuberculosis. In words: Antimycobacterial activity against Mycobacterium tuberculosis H37Rv ATCC 27294 assessed as inhibition of bacterial growth by microplate alamar blue assay. The format is functional.
Data set [11] in a line: Displacement of [3H]-naloxone from opiate receptor in rat cortical brain membrane assessed as inhibition constant incubated for 30 mins by liquid scintillation counter analysis. It counts as cell membranes.
The subject of a further data set is Leishmania infantum. In words: Antileishmanial activity against Leishmania infantum PB75 assessed as cell growth inhibition measured after 72 hrs by MTT assay. The format is functional.
Data set [12] can be described thus: Cytotoxicity against vincristine resistant human VJ300 cells assessed as cell growth inhibition. Conditions: VJ-300. The format is functional, cell-based.
The test system of the next data set is KB. In words: Cytotoxicity against human KB cells assessed as cell growth inhibition. The format is functional, cell-based.
The subject of another data set is SAOS-2. In words: Cytotoxicity against human SAOS-2 cells assessed as cell growth inhibition incubated for 48 hrs by microplate reader based analysis. It counts as functional. To be noted: SAOS-2, 48 h.
The nature of data set [13]: Cytotoxicity against human SOSP-9607 cells assessed as cell growth inhibition incubated for 48 hrs by microplate reader based analysis. The format is functional. To be noted: SOSP-9607, 48 h.
Another data set has as its system U2OS. In words: Cytotoxicity against human U2OS cells assessed as cell growth inhibition incubated for 48 hrs by microplate reader based analysis. It counts as functional.
A further data set relates to MG-63. In words: Cytotoxicity against human MG-63 cells assessed as cell growth inhibition incubated for 48 hrs by microplate reader based analysis. The format is functional. Conditions: MG-63, 48 h.
Data set [14] is described as follows: Toxicity in iv dosed Swiss-Webster mouse assessed as lethal dose at 7.5 ml/kg, iv administered through tail vein injection by Litchfield-Wilcoxon method. The format is organism-based. Conditions: in vivo.
The next data set deals with HepG2. As to the kind of experiment: Cytotoxicity against human HepG2 cells assessed as cell growth inhibition at 0.9 uM measured after 48 hrs by MTT assay relative to control. It counts as functional. On the set-up: scale not given: the % may be the effect or the level left.
In another data set the test system is MCF7. In words: Cytotoxicity against human MCF7 cells assessed as cell growth inhibition measured after 48 hrs by MTT assay. To be noted: MCF7, 48 h. The format is functional, cell-based.
The next data set concerns SMMC-7721. As to the kind of experiment: Cytotoxicity against human SMMC-7721 cells assessed as cell growth inhibition at 0.9 uM measured after 48 hrs by MTT assay relative to control. The format is functional. The arrangement: scale not given: the % may be the effect or the level left.
Data set [15] relates to Plasmodium falciparum. As to the kind of experiment: Antiplasmodial activity against Plasmodium falciparum 3D7 infected in human erythrocytes assessed as cell growth inhibition incubated for 72 hrs by parasite lactate dehydrogenase assay. It counts as functional, organism-based. To be noted: 3D7, 72 h.
Data set [16] in a line: Toxicity in iv dosed rat assessed as lethal dose. Conditions: in vivo.
The subject of data set [17] is Plasmodium falciparum. In words: Antiplasmodial activity against chloroquine-resistant Plasmodium falciparum W2 assessed as cell growth inhibition incubated for 24 hrs by [3H]-hypoxanthine based scintillation counter analysis. It counts as functional, organism-based.
In a further data set the target is Cholinesterase (Homo sapiens, UniProt P06276). As to the kind of experiment: Inhibition of human BChE.
A short description of data set [18]: Inhibition of human beta-secretase.
Data set [19] can be described thus: Induction of nitric oxide production in Rabbit aortic endothelial cell at 0.1 ug/ml measured after 48 hrs by […] analysis. The format is functional, Oryctolagus cuniculus. Conditions: dose 0.1 µg/ml.
The target in the next data set is Acetylcholinesterase (Homo sapiens, UniProt P22303). As to the kind of experiment: Inhibition of human acetylcholinesterase.
For a further data set, the system named is B16-F10. As to the kind of experiment: Induction of nitric oxide production in mouse B16-F10 cells at 1 ug/ml measured after 48 hrs by […] analysis. It counts as functional. To be noted: dose 1 µg/ml.
Data set [20] relates to Plasmodium falciparum. As to the kind of experiment: Antiplasmodial activity against chloroquine-sensitive Plasmodium falciparum 3D7 assessed as cell growth inhibition incubated for 24 hrs by [3H]-hypoxanthine based scintillation counter analysis. It counts as functional, organism-based.

Sequence of Prostaglandin G/H synthase 1 (Homo sapiens) (P23219 whole entry): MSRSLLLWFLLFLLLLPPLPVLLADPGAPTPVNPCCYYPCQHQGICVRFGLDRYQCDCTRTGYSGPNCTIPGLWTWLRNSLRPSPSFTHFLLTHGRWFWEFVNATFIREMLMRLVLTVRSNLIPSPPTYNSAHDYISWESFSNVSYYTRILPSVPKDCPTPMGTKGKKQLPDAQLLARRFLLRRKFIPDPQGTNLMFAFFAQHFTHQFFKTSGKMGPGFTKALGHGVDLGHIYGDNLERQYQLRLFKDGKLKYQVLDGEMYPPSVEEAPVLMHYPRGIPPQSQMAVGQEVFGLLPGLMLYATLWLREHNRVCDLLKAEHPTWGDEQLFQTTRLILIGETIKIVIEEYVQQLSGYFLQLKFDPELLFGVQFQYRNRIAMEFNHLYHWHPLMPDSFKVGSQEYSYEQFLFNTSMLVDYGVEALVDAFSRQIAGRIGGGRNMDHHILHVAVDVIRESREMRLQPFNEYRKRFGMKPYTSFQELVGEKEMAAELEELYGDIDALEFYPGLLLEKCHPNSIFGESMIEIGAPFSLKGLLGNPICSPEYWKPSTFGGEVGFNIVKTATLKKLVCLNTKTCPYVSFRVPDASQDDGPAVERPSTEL
Sequence of Polyunsaturated fatty acid 5-lipoxygenase (Homo sapiens) (P09917 whole entry): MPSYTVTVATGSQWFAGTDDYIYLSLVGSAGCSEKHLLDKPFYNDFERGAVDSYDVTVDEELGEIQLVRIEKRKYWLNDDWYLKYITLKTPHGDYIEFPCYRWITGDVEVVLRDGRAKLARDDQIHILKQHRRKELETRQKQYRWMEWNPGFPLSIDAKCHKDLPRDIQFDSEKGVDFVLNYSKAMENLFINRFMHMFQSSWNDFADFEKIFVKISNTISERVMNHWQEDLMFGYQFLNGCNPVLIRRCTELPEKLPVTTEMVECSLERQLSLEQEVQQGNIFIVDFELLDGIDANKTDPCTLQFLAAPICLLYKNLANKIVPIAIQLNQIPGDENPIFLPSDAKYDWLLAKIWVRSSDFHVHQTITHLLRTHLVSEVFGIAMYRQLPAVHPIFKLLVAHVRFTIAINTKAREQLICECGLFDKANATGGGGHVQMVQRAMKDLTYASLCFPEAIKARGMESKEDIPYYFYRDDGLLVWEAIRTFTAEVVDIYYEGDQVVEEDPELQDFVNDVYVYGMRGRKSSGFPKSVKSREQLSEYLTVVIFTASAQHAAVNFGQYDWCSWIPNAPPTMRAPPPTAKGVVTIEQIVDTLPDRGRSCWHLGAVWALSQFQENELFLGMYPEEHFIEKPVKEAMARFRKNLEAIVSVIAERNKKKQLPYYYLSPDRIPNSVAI
Sequence of Prostaglandin G/H synthase 2 (Homo sapiens) (P35354 whole entry): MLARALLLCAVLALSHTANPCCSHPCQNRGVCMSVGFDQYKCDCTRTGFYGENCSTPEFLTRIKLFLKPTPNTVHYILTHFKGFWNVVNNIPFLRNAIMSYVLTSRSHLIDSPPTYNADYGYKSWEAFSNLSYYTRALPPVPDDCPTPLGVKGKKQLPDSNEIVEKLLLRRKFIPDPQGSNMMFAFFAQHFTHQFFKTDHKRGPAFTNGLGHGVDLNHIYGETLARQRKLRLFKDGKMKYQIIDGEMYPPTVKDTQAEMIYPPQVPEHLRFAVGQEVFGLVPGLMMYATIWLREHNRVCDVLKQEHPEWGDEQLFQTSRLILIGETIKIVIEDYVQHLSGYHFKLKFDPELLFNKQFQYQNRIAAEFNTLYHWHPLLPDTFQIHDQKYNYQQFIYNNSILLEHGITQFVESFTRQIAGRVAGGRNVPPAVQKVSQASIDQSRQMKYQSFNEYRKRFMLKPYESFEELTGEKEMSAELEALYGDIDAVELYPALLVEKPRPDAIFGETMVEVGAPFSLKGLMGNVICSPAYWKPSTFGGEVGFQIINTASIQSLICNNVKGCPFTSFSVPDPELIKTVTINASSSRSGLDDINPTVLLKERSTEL
Sequence of Xanthine dehydrogenase/oxidase (P47989 whole entry): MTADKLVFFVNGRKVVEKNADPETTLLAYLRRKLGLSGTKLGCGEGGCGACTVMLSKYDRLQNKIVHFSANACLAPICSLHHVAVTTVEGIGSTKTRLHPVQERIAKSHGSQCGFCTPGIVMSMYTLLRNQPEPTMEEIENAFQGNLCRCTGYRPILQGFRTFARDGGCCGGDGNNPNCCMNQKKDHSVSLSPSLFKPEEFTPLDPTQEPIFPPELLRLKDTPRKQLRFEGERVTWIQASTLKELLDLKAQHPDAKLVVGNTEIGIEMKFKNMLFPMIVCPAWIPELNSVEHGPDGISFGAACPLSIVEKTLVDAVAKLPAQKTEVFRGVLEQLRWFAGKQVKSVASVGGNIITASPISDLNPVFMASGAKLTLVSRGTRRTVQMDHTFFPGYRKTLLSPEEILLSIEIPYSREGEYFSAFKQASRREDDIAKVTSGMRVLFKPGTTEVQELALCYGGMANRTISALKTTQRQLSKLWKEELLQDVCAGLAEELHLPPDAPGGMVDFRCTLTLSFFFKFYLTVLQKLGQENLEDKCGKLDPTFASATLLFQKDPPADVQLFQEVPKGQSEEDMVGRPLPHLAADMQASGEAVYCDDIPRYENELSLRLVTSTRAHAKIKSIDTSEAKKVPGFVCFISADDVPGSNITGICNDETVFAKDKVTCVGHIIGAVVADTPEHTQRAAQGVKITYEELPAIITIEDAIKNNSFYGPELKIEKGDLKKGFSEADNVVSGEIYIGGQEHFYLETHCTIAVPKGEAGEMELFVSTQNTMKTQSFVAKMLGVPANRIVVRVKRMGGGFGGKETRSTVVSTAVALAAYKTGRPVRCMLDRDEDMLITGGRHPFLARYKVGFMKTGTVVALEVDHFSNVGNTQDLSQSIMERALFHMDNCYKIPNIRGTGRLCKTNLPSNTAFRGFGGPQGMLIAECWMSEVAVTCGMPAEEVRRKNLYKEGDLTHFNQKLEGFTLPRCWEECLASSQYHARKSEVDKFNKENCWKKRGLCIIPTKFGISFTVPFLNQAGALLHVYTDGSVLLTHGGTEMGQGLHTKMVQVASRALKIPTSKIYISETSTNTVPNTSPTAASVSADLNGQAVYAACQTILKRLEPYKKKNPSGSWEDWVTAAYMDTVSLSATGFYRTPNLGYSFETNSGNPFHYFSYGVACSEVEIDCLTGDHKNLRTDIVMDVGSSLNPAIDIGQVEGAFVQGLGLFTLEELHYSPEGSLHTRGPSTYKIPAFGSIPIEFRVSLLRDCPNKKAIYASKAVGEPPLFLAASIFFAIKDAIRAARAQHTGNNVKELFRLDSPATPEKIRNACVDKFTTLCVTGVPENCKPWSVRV
Sequence of Acetylcholinesterase (P22303 whole entry): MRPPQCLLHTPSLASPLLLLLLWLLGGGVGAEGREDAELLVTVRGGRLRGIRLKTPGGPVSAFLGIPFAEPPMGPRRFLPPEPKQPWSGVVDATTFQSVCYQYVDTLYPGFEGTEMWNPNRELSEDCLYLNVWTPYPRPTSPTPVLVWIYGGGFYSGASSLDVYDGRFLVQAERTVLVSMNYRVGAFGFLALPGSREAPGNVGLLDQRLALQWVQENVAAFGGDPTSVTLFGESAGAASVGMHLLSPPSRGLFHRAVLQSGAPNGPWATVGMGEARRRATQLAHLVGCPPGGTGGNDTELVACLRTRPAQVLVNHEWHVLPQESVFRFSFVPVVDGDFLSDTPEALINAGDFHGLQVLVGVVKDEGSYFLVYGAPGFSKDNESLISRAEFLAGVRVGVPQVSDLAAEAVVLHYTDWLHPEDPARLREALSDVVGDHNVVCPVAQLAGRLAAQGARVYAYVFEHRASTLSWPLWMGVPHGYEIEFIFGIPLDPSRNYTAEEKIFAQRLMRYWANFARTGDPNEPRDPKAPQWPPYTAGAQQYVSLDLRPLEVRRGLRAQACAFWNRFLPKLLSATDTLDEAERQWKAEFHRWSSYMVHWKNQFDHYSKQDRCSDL
Sequence of Cholinesterase (P06276 whole entry): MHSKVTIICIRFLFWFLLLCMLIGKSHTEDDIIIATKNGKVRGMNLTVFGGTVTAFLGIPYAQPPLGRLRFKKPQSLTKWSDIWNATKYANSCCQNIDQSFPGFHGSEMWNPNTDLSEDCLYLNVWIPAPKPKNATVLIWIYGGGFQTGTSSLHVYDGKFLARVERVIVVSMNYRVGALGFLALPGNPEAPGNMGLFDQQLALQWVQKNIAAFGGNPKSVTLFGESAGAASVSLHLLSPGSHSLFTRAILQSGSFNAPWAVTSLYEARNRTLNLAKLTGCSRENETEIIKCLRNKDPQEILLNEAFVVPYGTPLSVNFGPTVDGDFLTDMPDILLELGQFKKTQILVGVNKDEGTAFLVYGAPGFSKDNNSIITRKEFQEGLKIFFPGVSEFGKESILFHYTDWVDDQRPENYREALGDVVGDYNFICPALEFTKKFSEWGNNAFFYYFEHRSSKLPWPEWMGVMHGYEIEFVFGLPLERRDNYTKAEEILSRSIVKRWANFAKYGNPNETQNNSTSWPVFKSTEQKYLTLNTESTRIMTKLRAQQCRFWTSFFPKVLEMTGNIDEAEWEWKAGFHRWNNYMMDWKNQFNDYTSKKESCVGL

Consider `CC[C@@H]1C2CCN(C)C1c1c([nH]c3ccc(OC)cc13)C2=O` (stereo not given in full), for which the IC50 (in general, the concentration that gives 50% inhibition) in the data set on NIH3T3 was over 50 µg/mL; with Plasmodium falciparum [1], 16.7 µM.

With `CO[C@H]1/C=C/O[C@@]2(C)Oc3c(C)c(O)c4c(O)c(c(/C=N/N5CCN(C)CC5)c(O)c4c3C2=O)NC(=O)/C(C)=C\C=C\[C@H](C)[C@H](O)[C@@H](C)[C@@H](O)[C@@H](C)[C@H](OC(C)=O)[C@@H]1C` [RIFAMPIN], in data set [2], the MIC50 (in general, the lowest concentration that inhibits either 50% of growth or 50% of the strains tested, depending on the study) is 0.5 µg/mL (≈ 0.608 µM).

Turning to `C/C=C1\CN2CC[C@@H]1[C@](CO)(C(=O)OC)c1[nH]c3ccccc3c1C2`, the 50% inhibitory concentration (IC50) is 32.6 µM in data set [3], over 100 µM in data set [6] and 24.5 µM in data set [8]. The inhibition (commonly the change of the read-out against control, counted positive when it falls) in data set [4] is 49.4%; in data set [5] it was 60.8%; in [7], 63.7%.

Regarding `C=C1CC[C@@]23CC[C@@]45C(C2)[C@]4(CCN13)c1cc(OC)ccc1N5C(=O)OC`, the results for the IC50 (in data set [9]; with B16) were 4.6 µg/mL (≈ 12.6 µM) and 7.2 µg/mL (≈ 19.6 µM), respectively.

In the case of `CC1(C)/C=C\N2C(=O)[C@]3(O)[C@@H](O)CCN3C(=O)[C@@H]2Cc2c1[nH]c1ccccc21`, the Activity with N2a was 30.3%.

For `CC[C@H]1[C@@H]2CCN3CC[C@@]4(C(=C2C(=O)OC)Nc2ccccc24)[C@@H]13` [TUBOTAIWINE], the MIC – broadly, the smallest concentration in the dilution series that meets the test's criterion for growth inhibition – in data set [10] came to 100 µg/mL (≈ 308 µM). Moreover, the Ki (in general, a dissociation constant, usually derived from enzyme kinetics or from competition with a known ligand) in [11] came to 1.65 µM. For the same compound, the results for the inhibition in [4], in [5] and in [7] were 60.8%, 69.5% and 90.4%, respectively. The GI50 (usually the concentration giving 50% growth inhibition) in the data set on Leishmania infantum worked out at 5.9 µg/mL (≈ 18.2 µM).

`COC(=O)[C@@]12COC[C@@H](O)[C@@]3(CO)[C@@H]1CCN3Cc1c2[nH]c2ccccc12`: the half-inhibitory concentration (IC50) in data set [12] turned out to be 7.33 µg/mL (≈ 19.7 µM); with KB, 7.76 µg/mL (≈ 20.8 µM).

`CC1(C)/C=C\N2C(=O)[C@]3(O)[C@H](O)CCN3C(=O)[C@@H]2Cc2c1[nH]c1ccccc21`: the Activity with N2a stood at 36.5%.

For `COC(=O)C1=C2Nc3c(O)cccc3[C@]23CC[N+]2(C)C[C@H](C(C)=O)[C@H]1C[C@H]32` (stereo not given in full), the half-inhibitory concentration (IC50) (in the data set with SAOS-2; in data set [13]; with U2OS; in the data set on MG-63) was 9.2 µM each time.

Regarding `COc1cc2c(cc1OC)[C@@]13CCN4CC5=CCO[C@H]6CC(=O)N2[C@H]1[C@H]6[C@H]5C[C@H]43` [BRUCINE], the LD50 (in general, the dose at which mortality reaches 50%) in data set [14] came out at 12 mg/kg. The Activity with HepG2 was determined as 78.3%; with SMMC-7721 it was 92.3%. The IC50 with MCF7 was 279 µM.

For the compound `CCC(=O)Oc1ccc([C@H]2Oc3ccc4[nH]cc5c4c3[C@@H]2C(=O)NCC5)cc1OC`, in the data set on Plasmodium falciparum [15], the IC50 came out at 36.6 µM.

For `CC1(C)/C=C\N2C(=O)C3(O)C(O)CCN3C(=O)[C@@H]2Cc2c1[nH]c1ccccc21` (stereo not given in full), the Activity in the data set on N2a amounted to 38.6%.

On to `O=C1C[C@@H]2OCC=C3CN4CC[C@]56c7ccccc7N1[C@H]5[C@H]2[C@H]3C[C@H]46` [STRYCHNINE], for which, in data set [16], the LD50 amounted to 0.96 mg/kg.

Turning to `C/C=C1/CN2CC[C@@H]1[C@](CO)(C(=O)OC)c1[nH]c3ccccc3c1C2`, the MIC in data set [10] was over 128 µg/mL.

As to `C=C1c2[nH]c3ccc(OC)cc3c2C2[C@@H](CC)C1CCN2C` (stereo not given in full), the IC50 with Plasmodium falciparum [17] worked out at 0.75 µg/mL (≈ 2.53 µM); at Cholinesterase it was 24 µM; in data set [18] it was 180 µM; at Acetylcholinesterase, 279 µM; in the data set on Plasmodium falciparum [20], 11.9 µg/mL (≈ 40.1 µM). The Activity in data set [19] was found to be 20.9 µM; in the data set with B16-F10, 41.1 µM.
